GYPA expression increase data for 6 compounds are collected here from patent publication US12551523B2, “HIF-1 activator” (NUTRITION ACT CO., LTD., priority 2021, dated 2026).

The structures appear in SMILES notation.

The first assay relates to K562 cells. The assay is described as follows: GYPA gene expression in K562 cells (quantitative real-time PCR). The settings on record: olive leaf components alone or in combination. It counts as cell-based, human. As to the method: K562 cells (Riken Cell Bank) were seeded in a 6-well plate using RPMI 1640 Medium (Gibco Waltham, MA, USA) containing 10% FBS and 1% penicillin/streptomycin solution added to a cell concentration of 2×10^4 cell/ml, and the cells were cultured in 5% CO2 at 37° C., 95% humidification. On the following day, the medium was replaced with a mixed solution of oleuropein (OP) and oleuroside (OS), and reaction was conducted for 6 days. The mixing proportions were as follows: (a) combinations of 35.36 μM OP and different concentrations of OS (1.18, 3.54, 5.23, 7.10, 17.68, 23.57, 35.36 and 43.85 μM), and (b) combinations of 5.23 μM OS and different concentrations of OP (0.52, 2.62, 5.23, 10.46, 20.92, 35.36, 41.84 and 52.30 μM). The medium was replaced every 3 days.
After 6 days of reaction, the medium was removed from the cells, Isogen (Nippon Gene Co., Ltd.) was added for sonication, and the total RNA was extracted according to the manufacturer's protocol. The RNA concentration was measured using a NanoDrop 2000 spectrometer (Thermo Scientific, USA). For cDNA synthesis, 4 μl of SuperScript IV VILO Master Mix (Invitrogen) and 16 μl of total RNA solution (final RNA concentration: 10 ng/20 μl) were mixed in a PCR tube, and a MiniAmp Plus thermal cycler (Applied Biosystems) was used for reverse transcription. The thermal cycle was 10 minutes at 25° C., 10 minutes at 50° C., 5 minutes at 85° C. and 1 minute at 4° C. Quantitative real-time PCR was carried out for gene expression analysis. The Taqman primer and probe set used for the target gene expression analysis was the following: GYPA (Hs011068079_s1). ACTB (Hs03023880 g1 was used as the endogenous standard. For Taqman real-time PCR amplification reaction and gene expression level quantitation, 10 μL of TaqMan Gene Expression Master Mix (Applied Biosystems), 1 μL of each primer and probe set and 9 μL of cDNA (final cDNA concentration: […]) were mixed, and an AB 7500 Fast Real-Time PCR system (Applied Biosystems) was used. The thermal cycle was 2 minutes at 50° C., 10 minutes at 95° C., 15 seconds at 95° C. (50 cycles) and 1 minute at 60° C. The gene expression levels were calculated by the ΔΔCt method.
Two types of olive leaf extract with different content ratios of oleuropein and oleuroside were used to treat K562 cells, and the GYPA gene expression levels were measured by real-time PCR, as an erythroid differentiation marker. The test substances used were olive leaf extract A: 120 μg/mL (1.89 μg oleuroside: 15.44 μg oleuropein) (“extract A”, corresponding to the invention), and olive leaf extract B: 120 μg/mL (1.56 μg oleuroside: 40.26 μg oleuropein) (“extract B”).
The hydroxytyrosol, oleuropein, oleuroside, apigenin, apigenin-7-glucoside, apigenin-7-O-rutinoside, luteolin and luteolin-7-O-glucoside present in olive leaves were used either alone or in combination to measure the GYPA gene expression effect by the same method as for the synergistic effect with OP/OS at 10:1 to 1:10 using GYPA as the marker. GYPA gene expression increased only with the combination of oleuroside and oleuropein.
For `O=c1cc(-c2ccc(O)cc2)oc2cc(O[C@@H]3O[C@H](CO)[C@@H](O)[C@H](O)[C@H]3O)cc(O)c12` [A7G, Apigenin-7-O-glucoside], the GYPA expression increase result was “No”.

In the case of `C[C@@H]1O[C@@H](OC[C@H]2O[C@@H](Oc3cc(O)c4c(=O)cc(-c5ccc(O)cc5)oc4c3)[C@H](O)[C@@H](O)[C@@H]2O)[C@H](O)[C@H](O)[C@H]1O` [A7R, Apigenin-7-O-rutinoside], the GYPA expression increase entry is “No”.

For the compound `O=c1cc(-c2ccc(O)cc2)oc2cc(O)cc(O)c12` [A, Apigenin], the GYPA expression increase entry is reported as “No”. Still for that read-out and setting: the same measure for `O=c1cc(-c2ccc(O)c(O)c2)oc2cc(O[C@@H]3O[C@H](CO)[C@@H](O)[C@H](O)[C@H]3O)cc(O)c12` [L7G, Luteolin-7-O-glucoside]: “No”. Still for that read-out and setting: the same measure for `O=c1cc(-c2ccc(O)c(O)c2)oc2cc(O)cc(O)c12` [L, Luteolin]: “No”. As for `C/C=C1/[C@H](O[C@@H]2O[C@H](CO)[C@@H](O)[C@H](O)[C@H]2O)OC=C(C(=O)OC)[C@H]1CC(=O)OCCc1ccc(O)c(O)c1` [OP, Oleuropein], the GYPA expression increase result is recorded as “No”.

The assay is the same for the next values; noted with them: olive leaf components alone or in combination, listed as oleuropein.
On to `C/C=C1/[C@H](O[C@@H]2O[C@H](CO)[C@@H](O)[C@H](O)[C@H]2O)OC=C(C(=O)OC)[C@H]1CC(=O)OCCc1ccc(O)c(O)c1` [OP, Oleuropein], for which the GYPA expression increase entry is “No effect”.
